# Assay results reported in patent US11147782B1, “GHB formulation and method for its manufacture” (JAZZ PHARMACEUTICALS IRELAND LIMITED, priority 2015, dated 2021).
# Assays:
# [1] = Affinity for the exchange site of the anion exchange resin, estimated from pKa; assay type: physicochemical; conditions: estimated from pKa relative to other short-chain fatty acids
# Excerpt: The affinity can be estimated based on the pKa of GHB (4.44) relative to other short-chain fatty acids for which affinities are known.
# [2] = Xyrem solution is 500 mg/mL (42 wt %); solubility limit considerably higher; cited from earlier work
Compound,affinity relative to chloride on the anion exchange resin [1],solubility limit in water [2] [mg/mL]
O=C(O)O [Bicarbonate],about 27%,
"O=C(O)CCCO [sodium oxybate, Sodium oxybate]",,> 500
